In the supplement of paper PMC10307832:

Key:
Assay in all cases: relative viability (nuclei count vs DMSO), 5 days (fraction); higher = more cells survive
[1] = compound: CC(C)(C)c1cc(NC(=O)Nc2ccc(-c3cn4c(n3)sc3cc(OCCN5CCOCC5)ccc34)cc2)no1 [Quizartinib] + N=C(N)NC(=N)NCCc1ccccc1 [Phenformin] (partner 250 µM)
How it was run: (§1)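 Lung cancer cell lines, seeded in 1536-well plates, were treated the following day by pin tool with a single drug or with five library-drug doses (not always all listed) in √10 steps on top of a fixed anchor-drug dose. Cells were fixed and nuclei stained in one step after 5 days, and nuclei were counted. Relative viability is the nuclei count for treated wells divided by that for vehicle wells, reported as medians of duplicate plates.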

[2] = compound: COCC[n+]1c2c(n(Cc3cnccn3)c1C)C(=O)c1ccccc1C2=O [YM155] + CCNC(=O)c1noc(-c2cc(C(C)C)c(O)cc2O)c1-c1ccc(CN2CCOCC2)cc1 [Luminespib] (partner 0.01 µM)
How it was run: as §1

[3] = compound: CC(C)(C)c1cc(NC(=O)Nc2ccc(-c3cn4c(n3)sc3cc(OCCN5CCOCC5)ccc34)cc2)no1 [Quizartinib] + COc1cccc2cc(-c3nc([C@H]4CC[C@H](C(=O)O)CC4)n4ncnc(N)c34)[nH]c12 [OSI-027] (partner 0.5 µM)
How it was run: as §1

[4] = compound: CC(C)(C)c1cc(NC(=O)Nc2ccc(-c3cn4c(n3)sc3cc(OCCN5CCOCC5)ccc34)cc2)no1 [Quizartinib] + C[C@]1(O)C[C@@H](c2nc(-c3ccc4ccc(-c5ccccc5)nc4c3)c3c(N)nccn32)C1 [Linsitinib] (partner 1 µM)
How it was run: as §1

Cell Line	relative viability ([1]; first compound 0.001 µM)	relative viability ([1]; first compound 0.003162 µM)	relative viability ([1]; first compound 0.01 µM)	relative viability ([1]; first compound 0.03162 µM)	relative viability ([1]; first compound 0.1 µM)	relative viability ([2]; first compound 0.002 µM)	relative viability ([2]; first compound 0.006325 µM)	relative viability ([2]; first compound 0.02 µM)	relative viability ([2]; first compound 0.06325 µM)	relative viability ([3]; first compound 0.001 µM)	relative viability ([3]; first compound 0.003162 µM)	relative viability ([3]; first compound 0.01 µM)	relative viability ([3]; first compound 0.03162 µM)	relative viability ([3]; first compound 0.1 µM)	relative viability ([4]; first compound 0.001 µM)	relative viability ([4]; first compound 0.003162 µM)	relative viability ([4]; first compound 0.01 µM)	relative viability ([4]; first compound 0.03162 µM)	relative viability ([4]; first compound 0.1 µM)
NCI-H1437	0.274	0.277	0.294	0.208	0.172	1.1	1.1	0.976	0.76	0.789	0.868	0.853	0.956	0.747	0.954	0.897	1.01	0.898	0.706
NCI-H1563	0.648	0.708	0.656	0.514	0.533	0.554	0.455	0.542	0.555	0.734	0.701	0.78	0.696	0.667	1.01	1.04	1.17	–	0.972
NCI-H1651	0.41	0.268	0.35	0.231	0.272	0.869	0.836	0.789	0.604	0.672	0.584	0.637	0.632	0.742	0.858	0.946	1.06	0.727	0.93
NCI-H1666	0.581	0.433	0.569	0.568	0.54	1.01	1.07	1.02	0.852	0.755	0.883	0.856	0.764	0.857	0.771	0.753	0.868	0.631	0.865
NCI-H1734	0.3	0.338	0.48	0.391	0.387	0.242	0.202	0.23	0.174	0.522	0.543	0.636	0.555	0.611	0.752	0.871	0.901	0.855	0.842
NCI-H1755	0.58	0.665	0.609	0.652	0.672	0.519	0.445	0.473	0.583	0.591	0.645	0.79	0.793	0.701	0.611	0.997	0.963	1	0.99
NCI-H1792	0.259	0.2	0.244	0.346	0.243	0.441	0.47	0.475	0.403	–	0.73	0.707	0.589	0.733	0.334	0.496	0.602	0.466	0.587
NCI-H1793	0.361	0.338	0.385	0.317	0.37	0.234	0.24	0.333	0.189	0.27	0.298	0.232	0.309	0.232	0.833	0.896	0.843	0.885	0.829
NCI-H1915	0.345	0.374	0.408	0.353	0.38	0.803	0.809	0.829	0.711	0.602	0.642	0.562	0.683	0.606	0.761	1.03	1.11	1.08	1.15
NCI-H1944	0.206	0.209	0.182	0.192	0.173	0.688	0.637	0.81	1.16	0.407	0.476	0.327	0.395	0.387	0.865	1.16	1.12	1.39	1.24
NCI-H1975	0.395	0.406	0.476	0.399	0.404	0.283	0.253	0.209	0.156	0.682	0.624	0.722	0.673	0.572	0.964	0.85	0.956	1	1.17
NCI-H1993	0.478	0.48	0.523	0.441	0.625	0.722	0.695	0.444	0.529	0.487	0.46	0.672	0.621	0.544	0.739	0.716	0.817	0.757	0.833
NCI-H2009	0.464	0.48	0.504	0.44	0.174	1.08	0.986	1.04	0.476	0.546	0.614	0.62	0.664	0.724	0.917	1.13	1.24	1.01	1.18
NCI-H2023	0.347	0.378	0.372	–	0.312	0.771	0.678	0.682	0.349	0.363	0.469	0.367	–	0.355	0.556	0.585	0.564	0.454	0.574
NCI-H2085	0.631	0.648	0.753	0.673	0.574	0.406	0.474	0.338	0.369	0.784	0.648	0.662	0.778	0.525	0.866	0.844	0.973	0.907	0.948
NCI-H2087	–	0.429	0.458	0.369	0.516	0.194	0.17	0.148	0.149	–	0.583	0.486	0.514	0.496	0.857	0.98	1.06	0.935	0.705
NCI-H2126	0.518	0.58	0.534	–	0.576	0.804	0.969	0.94	0.927	0.66	0.753	0.671	0.621	0.693	0.712	0.705	0.735	0.767	0.835
